Where two headings read alike, the source gives them in different places.
Legend:
2-AG levels in brain = test: 2-AG estimation in mouse brain after single intraperitoneal administration of Compound 74; type: in vivo, male C57BL/6 mice; conditions: for Mean 2AG Brain Concentration: 0.5 h
Procedure: (§1) This experiment was performed to determine plasma pharmacokinetics and estimate 2-AG levels in male C57BL/6 mice brain following a single intraperitoneal administration of Compound-74 (Dose: 5, 15, 50 and 150 mg/kg). The experiment was repeated at 150 mg/kg on 3 separate test dates to obtain the data shown in FIG. 1A (plasma and brain concentration of Compound 74 30 minutes after IP injection), and on the first and third test dates to obtain the data shown in FIG. 1B (brain concentration of 2-AG30 minutes after IP injection of Compound 74).
(§2) Study Design: A total of thirty male mice were used into the study and divided in to five groups with six mice in each group (n=6 mice/group/treatment design). Animals in Group 1 to Group 4 were administered intraperitoneally with Compound 74 solution formulation at 5, 15, 50 and 150 mg/kg dose, respectively. Animals in Group 5 were administered intraperitoneally with vehicle at 2 mL/kg dose. Blood and brain samples were collected at 0.5 h post dose. Mice were euthanized by cervical dislocation and brain samples were dissected rapidly and snap frozen in liquid nitrogen, weighed and homogenized in 2 mL of acetonitrile containing 2-AGd5. Blood samples were centrifuged at 4000 rpm for 10 minutes at 4° C. Plasma was harvested and separated in pre-labeled tubes. All samples were stored below −70° C. until bioanalysis.
(§3) Analysis: Brain samples were processed for 2-AG estimation. 2-AG levels were the detected values. Plasma concentrations were determined by fit for purpose LC-MS/MS method. LLOQ: 5.09 ng/mL (Plasma and brain)

human MAGL [1] = target: T1, human MAGL (Homo sapiens (Human), UniProt Q99685); test: MAGL inhibition potency assay with 4NPA substrate (methods of Table C); type: biochemical; conditions: read-out: MAGL Potency (Detection Method)
Target sequence in this assay (Q99685 2-303): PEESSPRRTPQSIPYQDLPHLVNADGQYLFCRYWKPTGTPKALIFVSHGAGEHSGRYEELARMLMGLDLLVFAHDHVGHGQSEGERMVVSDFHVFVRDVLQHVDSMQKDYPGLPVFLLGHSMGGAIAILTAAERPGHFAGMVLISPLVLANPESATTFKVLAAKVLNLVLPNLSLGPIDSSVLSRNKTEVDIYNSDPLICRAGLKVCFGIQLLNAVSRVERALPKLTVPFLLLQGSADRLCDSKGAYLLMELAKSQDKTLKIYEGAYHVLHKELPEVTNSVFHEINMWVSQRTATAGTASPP

[2] = Plasma and brain concentrations after single intraperitoneal administration of Compound 74; type: in vivo, male C57BL/6 mice; conditions: male, C57BL/6, mouse; for Kp at 0.5 h: brain/plasma, read-out: Brain Plama Ratio (Kp) range
Procedure: as §1, §2, §3

human MAGL [3] = target: T1, human MAGL; test: MAGL inhibition potency assay with 4NPA substrate (methods of Table C); type: biochemical; conditions: Method 1: Reaction Biology MAGL enzyme, 6 nM; read-out: MAGL Potency (Detection Method)
Text: Cayman's Monoacylglycerol Lipase Inhibitor Screening Assay provides a method for screening human MAGL inhibitors. MAGL hydrolyzes 4-nitrophenylacetate resulting in a yellow product, 4-nitrophenol, with an absorbance of 405-412 nm. The monoacylglycerol lipase inhibitor screening assay kit from Cayman Chemical was used to measure the MAGL potency for the compounds in Table 3 and Table 4. Cayman's Monoacylglycerol Lipase Inhibitor Screening Assay provides a method for screening human MAGL inhibitors. MAGL hydrolyzes 4-nitrophenylacetate resulting in a yellow product, 4-nitrophenol, with an absorbance of 405-412 nm. MAGL Inhibition was measured by the following assay. Monoacylglycerol Lipase (MAGL) inhibition was measured using recombinant MAGL enzyme (aa 2-303 RBC, internal preparation) and the substrate 4-Nitrophenyl acetate (4NPA) (Sigma-Aldrich, N8130). Hydrolysis of the substrate in the presence of the enzyme was measured by absorbance at 405 nm. 10 μL of assay buffer (10 mM Tris pH 7.5, 1 mM EDTA, 0.9% DMSO) was added to a black 384-well non-binding plate with clear bottom (Greiner, 781906) for each reaction. […] DMSO control wells were included for reference. A 10.8 nM (1.8×) MAGL mix in assay buffer was prepared, with […] added to each reaction well, for a final assay concentration of 6 nM. No enzyme wells received 25 μL of buffer. Plate was incubated at room temperature for 30 minutes. 35 mM solution of 4NPA in methanol was prepared daily. A 4.5×4NPA substrate solution was prepared in assay buffer and 10 μL was added to each reaction well, for a final assay concentration of 0.25 mM. Plate was spun for 1 minute at 1000 rpm before measuring absorbance using a CLARIOstar plate reader (BMG Labtech). A kinetic reading at 405 nm was done every minute for 30 minutes. Data was analyzed using the linear slope of the reaction progress curve and the average of the no-enzyme wells (background) was subtracted from the data. The background-subtracted slope data was converted to % activity using the average of wells with enzyme and DMSO vehicle. IC50s were calculated using GraphPad software (Sigmoidal dose response, variable slope equation). […] Table 5 provides potency measurements of MAGL inhibition measured using the Potency Assay of Example 18 above, with the following modifications described in Table C. [table]
Target sequence in this assay (Q99685 2-303): as above

human MAGL [4] = target: T1, human MAGL; test: MAGL reversible inhibition assay (washout); type: biochemical
Procedure: The reversible mechanism of MAGL inhibition of a test compound of Formula (I) can be determined. Flag-tagged MAGL enzyme will be immobilized on anti-Flag beads. Immobilized enzyme will be incubated+/−inhibitor at a dose that produces complete inhibition. Colorimetric substrate (4-NPA) will be added and the reaction monitored on a plate reader for 30 minutes to verify complete inhibition. Immobilized enzyme will then be washed thoroughly to remove the inhibitor, and fresh substrate will be added. The reaction will be monitored for an additional 30 minutes; returning enzymatic activity will indicate reversibility of inhibition.
MAGL enzyme was incubated for 30 minutes in the presence of 40× the IC50 concentration of inhibitor. Enzyme+inhibitor mix was then diluted 40-fold so that the final concentration of the inhibitor equaled the IC50 concentration. Substrate was added and the reaction was monitored for 30 minutes.
Target sequence in this assay (Q99685 whole entry): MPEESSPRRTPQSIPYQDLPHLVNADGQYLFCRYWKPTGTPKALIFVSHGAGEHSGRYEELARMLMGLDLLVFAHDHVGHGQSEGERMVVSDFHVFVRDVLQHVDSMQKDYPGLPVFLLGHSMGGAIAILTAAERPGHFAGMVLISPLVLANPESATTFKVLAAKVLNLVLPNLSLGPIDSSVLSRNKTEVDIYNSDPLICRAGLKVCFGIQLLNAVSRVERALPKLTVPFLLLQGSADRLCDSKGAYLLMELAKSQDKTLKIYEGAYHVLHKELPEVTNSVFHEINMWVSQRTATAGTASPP

For `Cc1cc(C2CC3(C2)CN(C(=O)c2cc(O)ccc2F)C3)n(-c2ccccc2C)n1` [Compound 74, (2-fluoro-5-hydroxyphenyl) (6-(3-methyl-1-(o-tolyl)-1H-pyrazol-5-yl)-2-azaspiro[3.3]heptan-2-yl) methanone], the “Mean 2AG Brain Concentration” value (2-AG levels in brain; IP 5 mg/kg) was 13.13 nmol/g, the “Mean 2AG Brain Concentration” value (2-AG levels in brain; IP 15 mg/kg) was 13.46 nmol/g and the “Mean 2AG Brain Concentration” value (2-AG levels in brain; IP 50 mg/kg) was 42.35 nmol/g. For the same compound, the “Mean 2AG Brain Concentration” value (2-AG levels in brain; IP 150 mg/kg) was 120.02 nmol/g, the “levels of 2-AG compared to baseline (vehicle treatment)” value (2-AG levels in brain; IP 5 and 15 mg/kg dose) was “elevated slightly” and the “levels of 2-AG compared to baseline (vehicle treatment)” value (2-AG levels in brain; IP 50 and 150 mg/kg dose groups) was “significant increase”. The IC50 (human MAGL [1]; Method 2: Cayman Chemical MAGL enzyme, 10 nM) was < 0.05 µM, the IC50 (human MAGL [1]; Method 3: Reaction Biology MAGL enzyme, 10 nM) was < 0.05 µM and the IC50 (human MAGL [1]; Method 4: Cayman Chemical MAGL enzyme, 15 nM) was 0.05 to 0.15 µM. The IC50 (human MAGL [1]; Method 5: Cayman Chemical MAGL enzyme, 25 nM) was < 0.05 µM, the concentration at 0.5 h ([2]; brain, IP 5 mg/kg, read-out: Brain concentration range) was 16 to 19 ng/g and the concentration at 0.5 h ([2]; brain, IP 15 mg/kg, read-out: Brain concentration range) was 25 to 67 ng/g. It also gave a concentration at 0.5 h ([2]; brain, IP 50 mg/kg, read-out: Brain concentration range) of 34 to 1250 ng/g, a concentration at 0.5 h ([2]; brain, IP 150 mg/kg, read-out: Brain concentration range) of 2410 to 12100 ng/g and a Kp at 0.5 h ([2]; IP 5 mg/kg) of 0.51 to 0.68. For the same compound, the Kp at 0.5 h ([2]; IP 15 mg/kg) was 0.16 to 0.44, the Kp at 0.5 h ([2]; IP 50 mg/kg) was 0.06 to 0.08 and the Kp at 0.5 h ([2]; IP 150 mg/kg) was 0.07 to 0.2. The concentration at 0.5 h ([2]; plasma, IP 5 mg/kg, read-out: Plasma concentration range) was 0.012 to 0.186 µg/mL, the concentration at 0.5 h ([2]; plasma, IP 15 mg/kg, read-out: Plasma concentration range) was 0.07 to 0.414 µg/mL and the concentration at 0.5 h ([2]; plasma, IP 50 mg/kg, read-out: Plasma concentration range) was 0.447 to 14.9 µg/mL. For the same compound, the concentration at 0.5 h ([2]; plasma, IP 150 mg/kg, read-out: Plasma concentration range) was 34.9 to 70.3 µg/mL, the IC50 (human MAGL [3]) was < 0.05 µM and the “A: degree to which MAGL enzymatic activity returned following washout” value (human MAGL [4]; pre-washout compound concentration: 1 μM) was 162. For the same compound, the “B: % MAGL activity returning after washout” value (human MAGL [4]; relative to control, immediately following a 30 minute washout) was >50%.
